Measurements reported in patent US6642365B1, “Anti-(retro)viral conjugates of saccharides and acetamidino or guanidino compounds” (Yeda Research and Development Co. Ltd., priority 2001, dated 2003).
pEC50: −log10 of the molar value. Where two headings read alike, the source gives them in different places.

What was measured:
[1] = tested on: HIV-1 RF; experiment: Anti-HIV assay, MTT; format: cell-based
[2] = tested on: HIV-1 Ba-L; experiment: Anti-HIV assay, β-galactosidase activity in P4-CCR5 MAGI cells; format: cell-based
Experimental: The HIV-1 strains NL4-3 and Ba-L and the CD4^+lymphocytic cell lines SUP-T1, MT-4 and MT-2 and P4-CCR5 MAGI cells were obtained from the MRC AIDS reagent program or the NIH, AIDS Research and Reference Reagent Program.
(§1) The cells were infected by incubation with different titers of the HIV-1 strains for 2 hrs at 37° C. in the presence or absence of the AAC of the invention. Then the cells were washed from the virus by centrifugation at 400 g and the supernatants were discarded. The cells were resuspended in culture medium, supplemented with different concentrations of the test compounds. The cells were allowed to proliferate for 5 days, the number of viable cells was quantified by a tetrazolium-based colorimetric method (CellTiter 96® AQueous One solution Cell Proliferation Assay, Promega). Anti-HIV activity in P4-CCR5 MAGI cells was done as follows: cells (1×10^5/ml) were infected with 10 ng/ml of p24 antigen of HIV-1 Ba-L in the presence of varying concentrations of the test compound. 24 hours post infection, cells were washed twice with PBS and resuspended in the medium containing the appropriate drug concentration. Five days after infection the cells were washed with PBS and evaluated for β-galactosidase activity.

[3] = tested on: MT-4 cells; experiment: Cytotoxicity in MT-4 cells, MTT; format: cell-based, human; conditions: viability of MT-4 cells, MTT assay
Experimental: as §1

[4] = tested on: HIV-1 IIIB; experiment: Anti-HIV assay, syncytium formation and tetrazolium colorimetric assay; format: cell-based; conditions: range over IIIb, 2D, AZT resistant, UC781 resistant and clade C HIV-1
Experimental: (§2) T-tropic HIV-1 laboratory strains IIIb, 2D as well as AZT-resistant and UC781-resistant strains were utilized in this study, along with clinical isolate (clade C). HIV-1 clinical isolate, resistant to AZT is a generous gift from Dr. Mark A. Wainberg, McGill AIDS Center, McGill University, Montreal, Canada.
(§3) MT-2 or MT-4 cells were cultured in RPMI 1640 supplemented with 10% fetal calf serum (FCS), 0.2 mM glutamine and penicilline/streptomycin/nistatin mixture. The cells were propagated in 96-well tissue culture plates at the density of 5×10^4 cells per well. Peripheral mononuclear blood cells (PMBC) were separated from whole blood samples by centrifugation in Ficoll gradient for 10 min at 400 g. PMBC were cultured in the same medium in 24-well tissue culture plates at the density of about 10^6 cells per well.

[5] = tested on: HIV-1 clinical isolate (clade C); experiment: as above; format: cell-based
Experimental: as §2, §3

[6] = tested on: HIV-1 clinical isolate, resistant to AZT; experiment: as above; format: cell-based; conditions: average of two independent experiments in duplicates; read-out: EC50 HIV-1 AZTres
Experimental: as §2, §3

[7] = tested on: HIV-1 2D; format: cell-based
Experimental: as §2, §3

[8] = tested on: MT-2 cells as well as PMBC lines ETH and IS; conditions: ratio CC50/EC50
Experimental: as §1

[9] = MTT assay, read-out: EC50 HIV-1 RF
[10] = average of two independent experiments in duplicates

Compound `N=C(N)NCCCC(N)C(=O)NCC1OC(OC2C(NC(=O)C(N)CCCNC(=N)N)CC(NC(=O)C(N)CCCNC(=N)N)C(OC3OC(CO)C(O)C(NC(=O)C(N)CCCNC(=N)N)C3O)C2O)C(O)C(O)C1O` (stereo not shown) [R4K, Tetraargininamido-kanamycin A conjugate] has a pEC50 [1, 9] of under 3.95, a pEC50 [2] of under 3.95 and a CC50 [3] of over 1130 µM.

“Triargininamido-gentamicin conjugate [R3G]” was tested, and the pEC50 [1, 9] was 4.46, the pEC50 ([1]; range over HIV-1 RF strain, AOM clinical isolate and M-tropic Ba-L strain, read-out: EC50) was 4.46 to 4.80 and the pEC50 [2] was 4.54. For the same compound, the pEC50 [4] was 5.00 to 5.22, the “inhibition of virus growth” value ([5]; MT-2 cells infected in presence of 20 μM R3G or 10 μM NeoR, then 3 days without AAC) was 30% and the pEC50 [5, 10] was 5.22. The pEC50 [6] was 5.10, the “antiviral effect in the presence of AZT” value ([7]; HIV-1 2D and clade C) was “additive” and the pEC50 [7, 10] was 5.00. For the same compound, the TI50 [8] was 50-85.
